PubChem BioAssay (NCI)
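GI50 = concentration required for 50% inhibition of growth. TGI denotes the concentration required for complete inhibition of growth.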

Columns and labels:
Test in all cases: growth of human tumour cells (NCI), 384-well format
786-0 renal = tested on: 786-0 renal
A498 renal = tested on: A498 renal
A549 NSCLC = tested on: A549 NSCLC
ACHN renal = tested on: ACHN renal
BT-549 breast = tested on: BT-549 breast
CAKI-1 renal = tested on: CAKI-1 renal
CCRF-CEM leukemia = tested on: CCRF-CEM leukemia
COLO 205 colon = tested on: COLO 205 colon
DU-145 prostate = tested on: DU-145 prostate
EKVX NSCLC = tested on: EKVX NSCLC
HCC-2998 colon = tested on: HCC-2998 colon
HCT-116 colon = tested on: HCT-116 colon
HCT-15 colon = tested on: HCT-15 colon
HL-60(TB) leukemia = tested on: HL-60(TB) leukemia
HOP-62 NSCLC = tested on: HOP-62 NSCLC
HOP-92 NSCLC = tested on: HOP-92 NSCLC
HS 578T breast = tested on: HS 578T breast
HT29 colon = tested on: HT29 colon
IGROV1 ovarian = tested on: IGROV1 ovarian
K-562 leukemia = tested on: K-562 leukemia
KM12 colon = tested on: KM12 colon
LOX IMVI melanoma = tested on: LOX IMVI melanoma
M14 melanoma = tested on: M14 melanoma
MALME-3M melanoma = tested on: MALME-3M melanoma
MCF7 breast = tested on: MCF7 breast
MDA-MB-231 breast = tested on: MDA-MB-231 breast
MDA-MB-435 melanoma = tested on: MDA-MB-435 melanoma
MDA-MB-468 breast = tested on: MDA-MB-468 breast
MOLT-4 leukemia = tested on: MOLT-4 leukemia
NCI-H226 lung = tested on: NCI-H226 lung
NCI-H23 lung = tested on: NCI-H23 lung
NCI-H322M lung = tested on: NCI-H322M lung
NCI-H460 NSCLC = tested on: NCI-H460 NSCLC
NCI-H522 lung = tested on: NCI-H522 lung
NCI/ADR-RES ovarian = tested on: NCI/ADR-RES ovarian
OVCAR-3 ovarian = tested on: OVCAR-3 ovarian
OVCAR-4 ovarian = tested on: OVCAR-4 ovarian
OVCAR-5 ovarian = tested on: OVCAR-5 ovarian
OVCAR-8 ovarian = tested on: OVCAR-8 ovarian
PC-3 prostate = tested on: PC-3 prostate
RPMI-8226 leukemia = tested on: RPMI-8226 leukemia
RXF 393 renal = tested on: RXF 393 renal
SF-268 CNS = tested on: SF-268 CNS
SF-295 CNS = tested on: SF-295 CNS
SF-539 CNS = tested on: SF-539 CNS
SK-MEL-2 melanoma = tested on: SK-MEL-2 melanoma
SK-MEL-28 melanoma = tested on: SK-MEL-28 melanoma
SK-MEL-5 melanoma = tested on: SK-MEL-5 melanoma
SK-OV-3 ovarian = tested on: SK-OV-3 ovarian
SN12C renal = tested on: SN12C renal
SNB-19 CNS = tested on: SNB-19 CNS
SNB-75 CNS = tested on: SNB-75 CNS
SW-620 colon = tested on: SW-620 colon
T-47D breast = tested on: T-47D breast
TK-10 renal = tested on: TK-10 renal
U251 glioblastoma = tested on: U251 glioblastoma
UACC-257 melanoma = tested on: UACC-257 melanoma
UACC-62 melanoma = tested on: UACC-62 melanoma
UO-31 renal = tested on: UO-31 renal

For C[C@]12O[C@H](C[C@]1(O)CO)n1c3ccccc3c3c4c(c5c6ccccc6n2c5c31)CNC4=O, which GI50 ([…]-0 renal) is on record?
Its GI50 is 31.3 nM.

And the TGI (786-0 renal)?
The TGI was 515 nM.

And the GI50 (A498 renal)?
Its GI50 is < 10 nM.

And the TGI (A498 renal)?
Its TGI is 1370 nM.

What about the GI50 (A549 NSCLC) of the same molecule?
Its GI50 is 76.3 nM.

And the TGI (A549 NSCLC)?
The TGI was 1590 nM.

What about the GI50 (ACHN renal) of the same molecule?
Its GI50 is < 10 nM.

What about the TGI (ACHN renal) of the same molecule?
Its TGI is 1680 nM.

And the GI50 (BT-549 breast)?
The GI50 was 12.3 nM.

What about the TGI (BT-549 breast) of the same molecule?
The TGI was 213 nM.

What about the GI50 (CAKI-1 renal) of the same molecule?
The GI50 was < 10 nM.

What about the TGI (CAKI-1 renal) of the same molecule?
Its TGI is 228 nM.

What about the GI50 (CCRF-CEM leukemia) of the same molecule?
Its GI50 is 11.3 nM.

What about the TGI (CCRF-CEM leukemia) of the same molecule?
Its TGI is 39.7 nM.

And the GI50 (COLO 205 colon)?
Its GI50 is 20.2 nM.

And the TGI (COLO 205 colon)?
The TGI was 103 nM.

And the GI50 (DU-145 prostate)?
The GI50 was < 10 nM.

And the TGI (DU-145 prostate)?
The TGI was 1620 nM.

What about the GI50 (EKVX NSCLC) of the same molecule?
The GI50 was 33.6 nM.

And the TGI (EKVX NSCLC)?
Its TGI is 471 nM.

What about the GI50 (HCC-2998 colon) of the same molecule?
The GI50 was 153 nM.

What about the TGI (HCC-2998 colon) of the same molecule?
Its TGI is 773 nM.

What about the GI50 (HCT-116 colon) of the same molecule?
Its GI50 is < 10 nM.

What about the TGI (HCT-116 colon) of the same molecule?
The TGI was 10300 nM.

And the GI50 (HCT-15 colon)?
Its GI50 is < 10 nM.

What about the TGI (HCT-15 colon) of the same molecule?
The TGI was 1300 nM.

And the GI50 (HL-60(TB) leukemia)?
The GI50 was < 10 nM.

And the TGI (HL-60(TB) leukemia)?
The TGI was 51.6 nM.

What about the GI50 (HOP-62 NSCLC) of the same molecule?
Its GI50 is 44.5 nM.

What about the TGI (HOP-62 NSCLC) of the same molecule?
Its TGI is 646 nM.

What about the GI50 (HOP-92 NSCLC) of the same molecule?
Its GI50 is 70.6 nM.

And the TGI (HOP-92 NSCLC)?
The TGI was 720 nM.

And the GI50 (HS 578T breast)?
Its GI50 is 33.9 nM.

What about the TGI (HS 578T breast) of the same molecule?
Its TGI is 769 nM.

What about the GI50 (HT29 colon) of the same molecule?
Its GI50 is 212 nM.

What about the TGI (HT29 colon) of the same molecule?
The TGI was 10500 nM.

And the GI50 (IGROV1 ovarian)?
Its GI50 is < 10 nM.

What about the TGI (IGROV1 ovarian) of the same molecule?
Its TGI is 1150 nM.

And the GI50 (K-562 leukemia)?
The GI50 was 60.1 nM.

What about the TGI (K-562 leukemia) of the same molecule?
The TGI was 1610 nM.

What about the GI50 (KM12 colon) of the same molecule?
The GI50 was < 10 nM.

What about the TGI (KM12 colon) of the same molecule?
Its TGI is 212 nM.

And the GI50 (LOX IMVI melanoma)?
The GI50 was 25.3 nM.

And the TGI (LOX IMVI melanoma)?
The TGI was 186 nM.

And the GI50 (M14 melanoma)?
The GI50 was < 10 nM.

And the TGI (M14 melanoma)?
Its TGI is 155 nM.

What about the GI50 (MALME-3M melanoma) of the same molecule?
The GI50 was < 10 nM.

And the TGI (MALME-3M melanoma)?
Its TGI is 79.5 nM.

And the GI50 (MCF7 breast)?
Its GI50 is 64.2 nM.

And the TGI (MCF7 breast)?
Its TGI is 1330 nM.

And the GI50 (MDA-MB-231 breast)?
The GI50 was 60.9 nM.

What about the TGI (MDA-MB-231 breast) of the same molecule?
The TGI was 1540 nM.

And the GI50 (MDA-MB-435 melanoma)?
The GI50 was < 10 nM.

And the TGI (MDA-MB-435 melanoma)?
Its TGI is 1110 nM.

What about the GI50 (MDA-MB-468 breast) of the same molecule?
Its GI50 is 21.5 nM.

And the TGI (MDA-MB-468 breast)?
Its TGI is 290 nM.

What about the GI50 (MOLT-4 leukemia) of the same molecule?
Its GI50 is < 10 nM.

And the TGI (MOLT-4 leukemia)?
Its TGI is 12.8 nM.

What about the GI50 (NCI-H226 lung) of the same molecule?
The GI50 was 57.4 nM.

What about the TGI (NCI-H226 lung) of the same molecule?
The TGI was 734 nM.

What about the GI50 (NCI-H23 lung) of the same molecule?
The GI50 was 24.1 nM.

What about the TGI (NCI-H23 lung) of the same molecule?
Its TGI is 311 nM.

And the GI50 (NCI-H322M lung)?
The GI50 was 584 nM.

What about the TGI (NCI-H322M lung) of the same molecule?
The TGI was 2140 nM.

What about the GI50 (NCI-H460 NSCLC) of the same molecule?
The GI50 was 34.8 nM.

What about the TGI (NCI-H460 NSCLC) of the same molecule?
The TGI was 1090 nM.

What about the GI50 (NCI-H522 lung) of the same molecule?
The GI50 was < 10 nM.

And the TGI (NCI-H522 lung)?
Its TGI is 111 nM.

And the GI50 (NCI/ADR-RES ovarian)?
Its GI50 is 1200 nM.

And the TGI (NCI/ADR-RES ovarian)?
The TGI was 2460 nM.

And the GI50 (OVCAR-3 ovarian)?
Its GI50 is 157 nM.

And the TGI (OVCAR-3 ovarian)?
Its TGI is 1280 nM.

And the GI50 (OVCAR-4 ovarian)?
Its GI50 is 1380 nM.

What about the TGI (OVCAR-4 ovarian) of the same molecule?
The TGI was 3200 nM.

And the GI50 (OVCAR-5 ovarian)?
Its GI50 is 122 nM.

And the TGI (OVCAR-5 ovarian)?
The TGI was 1900 nM.

And the GI50 (OVCAR-8 ovarian)?
The GI50 was 96.5 nM.

What about the TGI (OVCAR-8 ovarian) of the same molecule?
The TGI was 275 nM.

And the GI50 (PC-3 prostate)?
Its GI50 is 100 nM.

And the TGI (PC-3 prostate)?
Its TGI is 1860 nM.

And the GI50 (RPMI-8226 leukemia)?
The GI50 was 11.6 nM.

What about the TGI (RPMI-8226 leukemia) of the same molecule?
Its TGI is 39.8 nM.

And the GI50 (RXF 393 renal)?
The GI50 was < 10 nM.

What about the TGI (RXF 393 renal) of the same molecule?
Its TGI is 49.6 nM.

What about the GI50 (SF-268 CNS) of the same molecule?
Its GI50 is 44.2 nM.

What about the TGI (SF-268 CNS) of the same molecule?
Its TGI is 1400 nM.

And the GI50 (SF-295 CNS)?
The GI50 was 44.7 nM.

What about the TGI (SF-295 CNS) of the same molecule?
Its TGI is 1260 nM.

And the GI50 (SF-539 CNS)?
The GI50 was 24.2 nM.

What about the TGI (SF-539 CNS) of the same molecule?
Its TGI is 276 nM.

What about the GI50 (SK-MEL-2 melanoma) of the same molecule?
The GI50 was < 10 nM.

What about the TGI (SK-MEL-2 melanoma) of the same molecule?
Its TGI is 84.7 nM.

And the GI50 (SK-MEL-28 melanoma)?
The GI50 was 35.8 nM.

And the TGI (SK-MEL-28 melanoma)?
The TGI was 453 nM.

What about the GI50 (SK-MEL-5 melanoma) of the same molecule?
The GI50 was < 10 nM.

What about the TGI (SK-MEL-5 melanoma) of the same molecule?
Its TGI is 145 nM.

What about the GI50 (SK-OV-3 ovarian) of the same molecule?
The GI50 was < 10 nM.

What about the TGI (SK-OV-3 ovarian) of the same molecule?
The TGI was 627 nM.

And the GI50 (SN12C renal)?
The GI50 was < 10 nM.

What about the TGI (SN12C renal) of the same molecule?
The TGI was 458 nM.

What about the GI50 (SNB-19 CNS) of the same molecule?
Its GI50 is 341 nM.

What about the TGI (SNB-19 CNS) of the same molecule?
The TGI was 1850 nM.

What about the GI50 (SNB-75 CNS) of the same molecule?
Its GI50 is 143 nM.

And the TGI (SNB-75 CNS)?
The TGI was 1160 nM.

And the GI50 (SW-620 colon)?
The GI50 was 41.6 nM.

What about the TGI (SW-620 colon) of the same molecule?
Its TGI is 1450 nM.

And the GI50 (T-47D breast)?
The GI50 was 456 nM.

What about the TGI (T-47D breast) of the same molecule?
The TGI was 4260 nM.

What about the GI50 (TK-10 renal) of the same molecule?
Its GI50 is < 10 nM.

And the TGI (TK-10 renal)?
The TGI was 598 nM.

And the GI50 (U251 glioblastoma)?
The GI50 was 290 nM.

And the TGI (U251 glioblastoma)?
Its TGI is 1880 nM.

What about the GI50 (UACC-257 melanoma) of the same molecule?
The GI50 was 395 nM.

And the TGI (UACC-257 melanoma)?
Its TGI is 1680 nM.

What about the GI50 (UACC-62 melanoma) of the same molecule?
Its GI50 is < 10 nM.

And the TGI (UACC-62 melanoma)?
The TGI was 610 nM.

What about the GI50 (UO-31 renal) of the same molecule?
Its GI50 is 14.9 nM.

What about the TGI (UO-31 renal) of the same molecule?
The TGI was 1160 nM.
